The values that follow are results of earlier work, collected in patent publication EP1060743A1, “Oral cisapride dosage forms with an extended duration” (DEVELOPMENT CENTER FOR BIOTECHNOLOGY, priority 1999, dated 2000).

Molecules are shown by their SMILES. Read-outs that look alike come from different tables or passages of the source.

In the case of `COc1cc(N)c(Cl)cc1C(=O)NC1CCN(CCCOc2ccc(F)cc2)CC1OC` (racemic) [cisapride, (±)-cis-4-amino-5-chloro-N-1-[3-(4-fluorophenoxy)propyl]-3-methoxy-4-piperidine-2-methoxybenzamide monohydrate], the solubility of cisapride result is listed as “almost insoluble” (pH condition near neutral (pH of intestinal fluid)) and “better solubility” (under acidic conditions).
